Among the data in patent US20230263956A1, “INGESTIBLE DRUG DELIVERY DEVICE” (Massachusetts Institute of Technology, priority 2020, published 2023) are blood glucose levels values, retold here.

The test in a line: In vivo testing: tethered device jetting insulin into the stomach wall. Set-up: species or system Yorkshire pigs. Particulars: jet of insulin into stomach wall, 0.5 Units per kilogram, three of the five device tests, samples until two hours after deployment. The procedure: Studies were performed by trained veterinary technicians at MIT's animal testing facilities. Yorkshire pigs weighing between 70 and 90 kg were used. All studies were terminal studies (meaning the animal was euthanized immediately afterward). […] The testing protocol is described further below.
This formulation procedure was carried out the morning or evening before each in vivo study, and the resulting solution it was stored at 4° C. until the time of administration.
The device was loaded with API and CO2 in the operating room where the animal was sedated and intubated. The device was deployed either by direct placement into the stomach through a laparotomy, or via an over-tube with an endoscope and snare. Of the five deployments performed with this device, the first three were performed by laparotomy, and the latter two by endoscope. Triggering generally occurred within 15 minutes and could be identified through recoil and minor foaming near the base of the device.
Blood samples were collected by ear catheter or femoral catheter. […] The blood-glucose level was monitored at each draw using commercial glucose monitoring strips. […] The samples were then subsequently analyzed with a custom Ezyme-linked immunosorbent assay (ELISA) for […].

For the substance insulin, the blood glucose levels entry is on record as “drop in blood glucose levels”.
